Test results: patent US8524691B2, “Phosphonated rifamycins and uses thereof for the prevention and treatment of bone and joint infections” (The Medicines Company, priority 2008, dated 2013)
≈ marks a conversion by molar mass, not a printed value. Where “and” joins values, the source holds several entries; their conditions need not be identical. Equal entries are not always repeated. Where two headings read alike, the source gives them in different places.

Legend:
[1] = system: S. aureus ATCC 29213; assay: Antibacterial susceptibility (MIC), NCCLS broth microdilution; format: cell-based
Experimental: (§1) Susceptibility of S. aureus strains to the known antibiotics and synthesized compounds was determined by following the guidelines set by NCCLS (M26-A). Compounds were diluted two-fold serially in DMSO and transferred to cation-adjusted Mueller Hinton broth (CAMHB; Becton Dickinson). 50 μL of compounds diluted in CAMHB was mixed with 100 μL of bacteria diluted in CAMHB in 96-well microtiter plates. The final concentration of micro-organisms in the assay was 5×10^5c.f.u. per mL and the final concentration of DMSO in the assay was 1.25%. Assays were set up in duplicate and incubated at 37° C. for 18 h. The lowest concentration of compound that inhibited visible growth was reported as the minimum inhibitory concentration (MIC).

[2] = system: S. aureus ATCC 13709^A, Novobiocin and Rifampicin resistant variant; assay: as above; format: cell-based
Experimental: as §1

[3] = system: S. aureus ATCC 13709; assay: microbe, parasite or virus in culture; format: cell-based; conditions: for MIC: Staphylococcus aureus, ATCC13709, 18 h; for Serum dependence of antibacterial activity (in words): MIC with versus without serum
Experimental: as §1
Susceptibility testing experiments were also carried out in the presence of serum. These experiments were carried out similar to the susceptibility testing with the following modifications. 75 μL of compounds diluted in CAMHB was mixed with 75 μL of bacteria diluted in 100% serum from any given source (commercial pooled mouse serum (MS) and human serum (HS), Equitech-Bio Inc.) or diluted in 8% purified human serum albumin (HSA) (Calbiochem). The final concentration of animal serum in the assay was 50% and the final concentration of purified human serum albumin in the assay was 4%; the concentrations of all other components were identical to those described for susceptibility testing.

[4] = system: S. aureus ATCC 13709; assay: microbe, parasite or virus in culture; format: cell-based; conditions: for Antibacterial activity (in words, from Table 1): S. aureus MIC
Experimental: as §1

[5] = system: Novobiocin resistant mutant strain of S. aureus ATCC 13709; assay: Prophylactic efficacy in rat model of S. aureus bone infection; format: in vivo; conditions: tibia 24 h postinfection; for Measured bacterial titer, parent drug: rifabutin 20 mg/kg, listed as Parent drug
Experimental: To determine the in vivo activity of bisphosphonated prodrugs of Rifamycin derived antibacterials in comparison to their non-bisphosphonated parents, compounds 18, 19, 48a, 59, 66, 89, 95, 102, 110, 142b and 164 and their parent drug rifabutin were used as prophylactic therapeutics in an animal model of infection. Specifically, a spontaneous Novobiocin resistant mutant strain of S. aureus ATCC 13709 (a clinical osteomyelitis isolate), was grown overnight at 37° C. in brain heart infusion broth (BHIB). After 16 h of growth, cells were subcultured into fresh BHIB and incubated for 4 to 5 h at 37° C. The cells were washed twice with phosphate-buffered saline (PBS) and resuspended in BHIB supplemented with 10% (vol./vol.) fetal bovine serum at a density of approximately 10^10 colony forming units (CFU)/ml (based upon turbidimetry). The suspension was aliquoted and a portion was used to check the CFU count. The culture was stored frozen (−80° C.) and was used without subculture. For use as an inoculum the culture was thawed, diluted in PBS and kept in an ice bath until it was used.
Animals were infected as described by O'Reilly et al. (Antimicrobial Agents and Chemotherapy (1992), 36(12): 2693-97) to generate the bone infection. Female CD rats (age, 57 to 70 days; n=5/group; Charles River, St-Constant, Canada) were anaesthetized by isofluorane before and during the surgery. Following complete induction of anesthesia, the rat was placed ventral side up and hair was shaved from the surgical site. The skin over the leg was cleaned and disinfected (proviodine-ethanol 70%). A longitudinal incision below the knee joint was made in the sagital plane. The incision was made over the bone below the “knee joint” (tibia head or condyle) but not completely extending to the ankle. A high speed drill fitted with a 2 mm bulb bit was used to drill a hole into the medullar cavity of the tibia. Rats were injected intra-tibially with 0.05 ml 5% sodium morrhuate (sclerosing agent) and then with 0.05 ml of S. aureus suspension (ca. 2×10^7 CFU/rat). The hole was sealed by applying a small amount of dry dental cement which immediately absorbs fluids and adheres to the site. The wound was closed using 3 metal skin clips. Moxifloxacin (as a positive control) was injected once at 10 mg/kg intravenously 1 h postinfection in saline, while the Rifabutin derived prodrugs (prepared in 0.9% saline) were injected at the dose indicated in Table 3 as a single intravenous bolus at different time points prior to the infection.
Infected rats were sacrificed by CO2 asphyxiation 24 h postinfection to monitor the bacterial CFU count. Infected tibiae were removed, dissected free of soft tissue, and weighed. The bones were ground, 50 mg of charcoal were added and the powder was resuspended in 5 ml 0.9% NaCl, serially diluted and processed for quantitative cultures. Treatment efficacy was measured in terms of Log viable bacteria (Log CFU per gram of bone). […] The limit of detection is 2 Log CFU. Statistical comparisons of viable bacterial counts for the different treated and untreated groups were performed with the Dunnett's multiple-comparison test. Differences were considered significant when the P value was <0.05 when comparing treated infected animals to the untreated infected ones. The doses used, the amount of time separating the treatment from the time of infection and the treatment outcomes are shown in Table 3.

Structure (SMILES)	Minimum inhibitory concentration, S. aureus ATCC 29213 ([1]; CAMHB, 37° C., 18 h) [µg/mL]	Minimum inhibitory concentration, S. aureus ATCC 13709^A [2] [µg/mL]	Minimum inhibitory concentration, ATCC 13709 + 50% Mouse Serum [3] [µg/mL]	Minimum inhibitory concentration, ATCC 13709 + 50% Rat Serum ([3]; 50% Rat Serum) [µg/mL]	Minimum inhibitory concentration, S. aureus ATCC 13709 ([4]; CAMHB, 37° C., 18 h) [µg/mL]	Minimum inhibitory concentration, ATCC 13709 + 50% Human Serum ([3]; 50% Human Serum) [µg/mL]	Minimum inhibitory concentration, ATCC 13709 + 50% Mouse Serum ([3]; 50% Mouse Serum) [µg/mL]	Antibacterial activity (in words, from Table 1) [4]	also measured
CO[C@H]1/C=C/O[C@@]2(C)Oc3c(C)c(O)c4c(c3C2=O)C2=NC3(CCN(CC(C)C)CC3)NC2=C(NC(=O)/C(C)=C\C=C\[C@H](C)[C@H](OC(=O)CN(C)C(=O)CNC(=O)[C@@H](Cc2ccccc2)NC(=O)CNC(=O)CCC(P(=O)(O)O)P(=O)(O)O)[C@@H](C)[C@@H](O)[C@@H](C)[C@H](OC(C)=O)[C@@H]1C)C4=O.N.N [Compound 79a]	16	>128	>128	64	16	–	–	–	Minimum inhibitory concentration, ATCC 13709 + 50% Human Serum [3]: >128 µg/mL
CO[C@H]1/C=C/O[C@@]2(C)Oc3c(C)c(O)c4c(c3C2=O)C2=NC3(CCN(CC(C)C)CC3)NC2=C(NC(=O)/C(C)=C\C=C\[C@H](C)[C@H](O)[C@@H](C)[C@@H](O)[C@@H](C)[C@H](OC(C)=O)[C@@H]1C)C4=O [Rifabutin, reference compound]	–	–	–	–	–	–	–	–	Measured bacterial titer, parent drug ([5]; 1 day prior to infection): 2.03 ± 0.07 Log CFU/g of bone and 2.09 ± 0.06 Log CFU/g of bone and 2.03 ± 0.09 Log CFU/g of bone and 2.07 ± 0.09 Log CFU/g of bone and 2.35 ± 1.12 Log CFU/g of bone; Measured bacterial titer, parent drug ([5]; 5 days prior to infection): 2.75 ± 0.94 Log CFU/g of bone and 4.27 ± 1.91 Log CFU/g of bone and 4.34 ± 0.79 Log CFU/g of bone and 4.71 ± 1.05 Log CFU/g of bone; MIC ([1]; Staphylococcus aureus, ATCC29213, CAMHB, 37° C., 18 h, read-out: Minimum inhibitory concentration, S. aureus ATCC 29213): 0.0156 µg/mL (≈ 0.0184 µM); MIC ([3]; read-out: Minimum inhibitory concentration, ATCC 13709 + 50% Human Serum): 0.0312 µg/mL; MIC ([3]; read-out: Minimum inhibitory concentration, ATCC 13709 + 50% Mouse Serum): 0.0625 µg/mL; MIC ([3]; read-out: Minimum inhibitory concentration, ATCC 13709 + 50% Rat Serum): 0.0312 µg/mL; MIC ([4]; Staphylococcus aureus, ATCC13709, CAMHB, 37° C., 18 h, read-out: Minimum inhibitory concentration, S. aureus ATCC 13709): 0.0312 µg/mL (≈ 0.0369 µM)
CO[C@H]1/C=C/O[C@@]2(C)Oc3c(C)c(O)c4c(c3C2=O)C2=NC3(CCN(CC(C)C)CC3)NC2=C(NC(=O)/C(C)=C\C=C\[C@H](C)[C@H](OC(=O)CN(C)C(=O)NC(P(=O)(O)O)P(=O)(O)O)[C@@H](C)[C@@H](O)[C@@H](C)[C@H](OC(C)=O)[C@@H]1C)C4=O [Compound 140]	16 (≈ 14.1 µM)	>128	–	4	16 (≈ 14.1 µM)	128	32	–	Serum dependence of antibacterial activity (in words) [3]: weak antibacterial activity does not show a serum dependence
CO[C@H]1/C=C/O[C@@]2(C)Oc3c(C)c(O)c4c(c3C2=O)C2=NC3(CCN(CC(C)C)CC3)NC2=C(NC(=O)/C(C)=C\C=C\[C@H](C)[C@H](OC(=O)CNC(=O)CCCNC(=O)NC(P(=O)(O)O)P(=O)(O)O)[C@@H](C)[C@@H](O)[C@@H](C)[C@H](OC(C)=O)[C@@H]1C)C4=O.N.N [Compound 155]	128	>128	>128	8	32	128	–	near complete loss of activity	–
CCCC(=O)OCCN(CCC(P(=O)(O)O)P(=O)(O)O)CC(=O)O[C@@H]1[C@@H](C)[C@@H](O)[C@@H](C)[C@H](OC(C)=O)[C@H](C)[C@@H](OC)/C=C/O[C@@]2(C)Oc3c(C)c(O)c4c(c3C2=O)C2=NC3(CCN(CC(C)C)CC3)NC2=C(NC(=O)/C(C)=C\C=C\[C@@H]1C)C4=O [Compound 52]	8 (≈ 6.56 µM)	>128	–	0.5	4 (≈ 3.28 µM)	16	2	–	Serum dependence of antibacterial activity (in words) [3]: significant increase in antibacterial activity in serum
CCC(=O)Oc1ccc(P(=O)(O)CP(=O)(O)O)cc1C(C)(C)CC(=O)N[C@@H](Cc1ccccc1)C(=O)N(C)CC(=O)O[C@@H]1[C@@H](C)[C@@H](O)[C@@H](C)[C@H](OC(C)=O)[C@H](C)[C@@H](OC)/C=C/O[C@@]2(C)Oc3c(C)c(O)c4c(c3C2=O)C2=NC3(CCN(CC(C)C)CC3)NC2=C(NC(=O)/C(C)=C\C=C\[C@@H]1C)C4=O.CCN(CC)CC.CCN(CC)CC [Compound 128]	–	>128	>128	–	–	–	–	near complete loss of activity	Minimum inhibitory concentration, S. aureus ATCC 29213 [1]: >128 µg/mL; Minimum inhibitory concentration, ATCC 13709 + 50% Human Serum [3]: >128 µg/mL; Minimum inhibitory concentration, ATCC 13709 + 50% Rat Serum [3]: >128 µg/mL; Minimum inhibitory concentration, S. aureus ATCC 13709 [4]: >128 µg/mL
CO[C@H]1/C=C/O[C@@]2(C)Oc3c(C)c(O)c4c(c3C2=O)C2=NC3(CCN(CC(C)C)CC3)NC2=C(NC(=O)/C(C)=C\C=C\[C@H](C)[C@H](OC(=O)CN(CCCCC(P(=O)(O)O)P(=O)(O)O)CCOC(C)=O)[C@@H](C)[C@@H](O)[C@@H](C)[C@H](OC(C)=O)[C@@H]1C)C4=O [Compound 48b]	0.5 (≈ 0.41 µM)	>128	–	0.0625	0.25 (≈ 0.205 µM)	0.5	0.25	very low MICs whether in the absence or in the presence of serum	–
COc1c(N2C[C@@H]3CCCN[C@@H]3C2)c(F)cc2c(=O)c(C(=O)O)cn(C3CC3)c12 [Moxifloxacin, reference compound]	–	–	–	–	–	–	–	–	Measured bacterial titer, positive control ([5]; Moxifloxacin 10 mg/kg intravenously once 1 h postinfection, listed as Positive control): 2.62 ± 0.37 Log CFU/g of bone and 3.22 ± 0.65 Log CFU/g of bone and 2.27 ± 0.21 Log CFU/g of bone and 2.63 ± 0.65 Log CFU/g of bone and 2.06 ± 0.10 Log CFU/g of bone and 2.95 ± 1.07 Log CFU/g of bone and 2.2 ± 0.28 Log CFU/g of bone and 3.01 ± 0.74 Log CFU/g of bone
